Assay results from publication PMC11375437, “Selective labelling of GBA2 in cells with fluorescent β-D-arabinofuranosyl cyclitol aziridines” (Chemical Science, 2024).

Molecular target: T1, rhGBA1 (Homo sapiens, UniProt P04062, R534H)
T1 construct: purchased Sanofi Genzyme (gift) Cerezyme®
T1 sequence (P04062 40-536 R534H): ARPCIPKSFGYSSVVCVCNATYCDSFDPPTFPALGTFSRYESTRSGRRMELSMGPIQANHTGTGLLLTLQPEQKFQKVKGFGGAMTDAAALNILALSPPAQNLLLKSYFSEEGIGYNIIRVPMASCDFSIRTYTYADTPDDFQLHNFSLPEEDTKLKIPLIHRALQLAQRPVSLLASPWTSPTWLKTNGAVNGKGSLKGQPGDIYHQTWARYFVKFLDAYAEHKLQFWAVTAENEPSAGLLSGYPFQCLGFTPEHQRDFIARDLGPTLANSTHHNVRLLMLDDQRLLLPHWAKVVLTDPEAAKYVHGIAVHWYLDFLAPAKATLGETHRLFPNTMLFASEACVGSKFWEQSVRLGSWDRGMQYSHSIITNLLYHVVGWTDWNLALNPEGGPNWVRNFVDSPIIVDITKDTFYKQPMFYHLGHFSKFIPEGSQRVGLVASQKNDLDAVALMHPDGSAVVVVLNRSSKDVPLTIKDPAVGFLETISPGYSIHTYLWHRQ
Experiment: Labelling of GBA2 OE lysate spiked with rhGBA1, residual rhGBA1 read out with ABP 10 or 11
Format: biochemical
Conditions: GBA2 OE lysate spiked with 3 ng rhGBA1; 30 min
Method: To this end, lysates of HEK293T cells containing all β-glucosidases (endogenous GBA1 with overexpressed GBA2 and GBA3) were treated with ABPs 3, 4, 5 or 7, followed by protein separation by SDS-PAGE and fluorescence scanning of the wet gel slabs. […] In contrast, the β-D-Araf aziridine ABPs 3 and 4 selectively labelled GBA2 at a concentration of 100 nM, while Cy5 tagged ABP 5 did so at 500 nM. The GBA2 selectivity of β-D-Araf cyclitol aziridines 3, 4 and 5 was confirmed in a mixture of a lysate of overexpressed GBA2 cells spiked with 3 ng rhGBA1 (Fig. 2C and ESI Fig. S3 ^†). […] Therefore, only a combined inactivation rate constant (kinact) and binding constant (KI) ratio (kinact/KI) could be measured. […] Importantly, no labelling of GBA1 or GBA3 was detected under varying pH and time conditions (ESI Fig. S4-2 ^†). […]
2.8 β-Glucosidase inactivation visualized by competitive ABPP with SDS-PAGE In general, samples containing GBA1, GBA2 or GBA3 (see the exact constitution of these samples in the described case) are first incubated (in vitro or in situ) with the inactivator compounds, subsequently, the fluorescent readout ABPs were added and incubated with the mixture to reveal the residual active β-glucosidase enzymes. […]

Structure (SMILES)	Concentration at which marginal GBA1 labelling occurs [µM]
CC1=CC(C)=[N+]2C1=C(CCCCc1cn(CCCCCCCCN3[C@@H]4[C@H](CO)[C@@H](O)[C@H](O)[C@@H]43)nn1)c1c(C)cc(C)n1[B-]2(F)F (some centres unmarked) [ABP 3]	10
COc1ccc(C2=[N+]3C(=C(CCCCc4cn(CCCCCCCCN5[C@@H]6[C@H](CO)[C@@H](O)[C@H](O)[C@@H]65)nn4)c4ccc(-c5ccc(OC)cc5)n4[B-]3(F)F)C=C2)cc1 (some centres unmarked) [ABP 4]	10
